In ChEMBL document CHEMBL5154823, “Amphiphilic cyclic peptide [W4KR5]-Antibiotics combinations as broad-spectrum antimicrobial agents” (Eur J Med Chem, 2022):
Activity calls are given as the source filed them. The calls are words filed in the database; no cut-off is given here. Where a SMILES comes first, the peptide text is derived from it.

How the values were obtained:
Klebsiella pneumoniae [1] = assay: Antibacterial activity against Klebsiella pneumoniae ATCC BAA 1705 assessed as tetracycline MIC incubated for 24 hrs by microbroth dilution assay; assay type: functional
Escherichia coli [2] = assay: Antibacterial activity against carbapenem and NDM-1 positive resistant Escherichia coli ATCC BAA 2452 assessed as reduction in microbial growth incubated for 24 hrs by microbroth dilution method; assay type: functional
Staphylococcus aureus [3] = assay: Synergistic antibacterial activity against methicillin resistant Staphylococcus aureus ATCC BAA -1556 assessed as fractional inhibitory concentration index incubated for 24 hrs in presence of meropenem by checkerboard assay; assay type: functional
HEK293 = assay: Cytotoxicity against HEK293 cells assessed as effect on cell viability at 10 ug/ml incubated for 24 hrs by microplate reader analysis; assay type: toxicity, cell-based; settings: human, hek293, 24 h, dose 10 µg/ml
Cell membrane [4] = assay: Induction of membrane disruption in Staphylococcus aureus ATCC BAA -1556 assessed as increase in PI positive cells at 4 times of MIC incubated for 2 hrs by Propidium iodide staining based FACS cytometry analysis relative to control; assay type: subcellular
Pseudomonas aeruginosa [5] = assay: Antibacterial activity against Pseudomonas aeruginosa ATCC 27883 assessed as vancomycin MIC incubated for 24 hrs by microbroth dilution assay; assay type: functional
Klebsiella pneumoniae [6] = assay: Antibacterial activity against Klebsiella pneumoniae ATCC BAA 1705 assessed as clindamycin MIC incubated for 24 hrs by microbroth dilution assay; assay type: functional
Klebsiella pneumoniae [7] = assay: Synergistic antibacterial activity against Klebsiella pneumoniae ATCC BAA 1705 assessed as fractional inhibitory concentration index incubated for 24 hrs in presence of vancomycin by checkerboard assay; assay type: functional
Staphylococcus aureus [8] = assay: Antibacterial activity against Staphylococcus aureus ATCC BAA -1556 assessed as tobramycin MIC incubated for 24 hrs by microbroth dilution assay; assay type: functional
Staphylococcus aureus [9] = assay: Antibacterial activity against Staphylococcus aureus ATCC BAA -1556 assessed as daptomycin MIC incubated for 24 hrs by microbroth dilution assay; assay type: functional
Klebsiella pneumoniae [10] = assay: Antibacterial activity against Klebsiella pneumoniae ATCC BAA 1705 assessed as kanamycin MIC incubated for 24 hrs by microbroth dilution assay; assay type: functional
Klebsiella pneumoniae [11] = assay: Synergistic antibacterial activity against Klebsiella pneumoniae ATCC BAA 1705 assessed as fractional inhibitory concentration index incubated for 24 hrs in presence of levofloxacin by checkerboard assay; assay type: functional
Cell membrane [12] = assay: Induction of membrane disruption in Staphylococcus aureus ATCC BAA -1556 assessed as increase in PI positive cells at MIC incubated for 2 hrs by Propidium iodide staining based FACS cytometry analysis relative to control
Staphylococcus aureus [13] = assay: Synergistic antibacterial activity against methicillin resistant Staphylococcus aureus ATCC BAA -1556 assessed as fractional inhibitory concentration index incubated for 24 hrs in presence of clindamycin by checkerboard assay; assay type: functional
Escherichia coli [14] = assay: Synergistic antibacterial activity against Escherichia coli ATCC 25922 assessed as fractional inhibitory concentration index incubated for 24 hrs in presence of levofloxacin by checkerboard assay; assay type: functional
[15] = Hemolytic activity in human Red blood cell incubated for 2 hrs by spectrophotometric analysis; assay type: toxicity, cell-based, Erythrocyte; settings: red blood cells (erythrocytes)
HepaRG = assay: Cytotoxicity against human HepaRG cells assessed as assessed as reduction in cell viability at 10 ug/ml incubated for 24 hrs by microplate reader analysis; assay type: toxicity, cell-based; settings: dose 10 µg/ml
Klebsiella pneumoniae [16] = assay: Bactericidal activity against Klebsiella pneumoniae ATCC BAA 1705 assessed as decrease in bacterial growth at MIC measured after 18 hrs by Time kill assay; assay type: functional, organism-based
Escherichia coli [17] = assay: Antibacterial activity against Escherichia coli ATCC 25922 assessed as ciprofloxacin MIC incubated for 24 hrs by microbroth dilution assay; assay type: functional
Klebsiella pneumoniae [18] = assay: Antibacterial activity against Klebsiella pneumoniae ATCC BAA 1705 assessed as daptomycin MIC incubated for 24 hrs by microbroth dilution assay; assay type: functional
Staphylococcus aureus [19] = assay: Synergistic antibacterial activity against methicillin resistant Staphylococcus aureus ATCC BAA -1556 assessed as fractional inhibitory concentration index incubated for 24 hrs in presence of vancomycin by checkerboard assay; assay type: functional
Escherichia coli [20] = assay: Bactericidal activity against Escherichia coli ATCC BAA 2452 assessed as reduction in bacterial growth at MIC measured after 8 hrs by Time kill assay; assay type: functional, organism-based
Escherichia coli [21] = assay: Synergistic antibacterial activity against carbapenem and NDM-1 positive resistant Escherichia coli ATCC BAA 2452 assessed as fractional inhibitory concentration index incubated for 24 hrs in presence of meropenem by checkerboard assay; assay type: functional
Klebsiella pneumoniae [22] = assay: Antibacterial activity against Klebsiella pneumoniae ATCC BAA 1705 assessed as polymyxin B MIC incubated for 24 hrs by microbroth dilution assay; assay type: functional
Pseudomonas aeruginosa [23] = assay: Bactericidal activity against Pseudomonas aeruginosa ATCC BAA 1744 assessed as decrease of bacterial growth at MIC measured after 12 hrs by Time kill assay; assay type: functional, organism-based
Staphylococcus aureus [24] = assay: Synergistic antibacterial activity against Staphylococcus aureus ATCC 29213 assessed as fractional inhibitory concentration index incubated for 24 hrs in presence of meropenem by checkerboard assay; assay type: functional
Klebsiella pneumoniae [25] = assay: Antibacterial activity against imipenem resistant Klebsiella pneumoniae ATCC BAA 1705 assessed as reduction in microbial growth incubated for 24 hrs by microbroth dilution method; assay type: functional
Pseudomonas aeruginosa [26] = assay: Synergistic antibacterial activity against carbapenem resistant Pseudomonas aeruginosa ATCC BAA 1744 assessed as fractional inhibitory concentration index incubated for 24 hrs in presence of meropenem by checkerboard assay; assay type: functional
Klebsiella pneumoniae [27] = assay: Synergistic antibacterial activity against Klebsiella pneumoniae ATCC BAA 1705 assessed as fractional inhibitory concentration index incubated for 24 hrs in presence of tobramycin by checkerboard assay; assay type: functional
Pseudomonas aeruginosa [28] = assay: Bactericidal activity against Pseudomonas aeruginosa ATCC BAA 1744 assessed as reduction in bacterial growth at MIC measured after 4 hrs by Time kill assay; assay type: functional, organism-based
Pseudomonas aeruginosa [29] = assay: Antibacterial activity against Pseudomonas aeruginosa ATCC 27883 assessed as tetracycline MIC incubated for 24 hrs by microbroth dilution assay; assay type: functional
Staphylococcus aureus [30] = assay: Antibacterial activity against Staphylococcus aureus ATCC BAA -1556 assessed as tetracycline MIC incubated for 24 hrs by microbroth dilution assay; assay type: functional
Klebsiella pneumoniae [31] = assay: Synergistic antibacterial activity against imipenem resistant Klebsiella pneumoniae ATCC BAA 1705 assessed as fractional inhibitory concentration index incubated for 24 hrs in presence of meropenem; assay type: functional
Pseudomonas aeruginosa [32] = assay: Antibacterial activity against Pseudomonas aeruginosa ATCC 27883 assessed as levofloxacin MIC incubated for 24 hrs by microbroth dilution assay; assay type: functional
Klebsiella pneumoniae [33] = assay: Synergistic antibacterial activity against Klebsiella pneumoniae ATCC BAA 1705 assessed as fractional inhibitory concentration index incubated for 24 hrs in presence of kanamycin by checkerboard assay; assay type: functional
Staphylococcus aureus [34] = assay: Bactericidal activity against methicillin resistant Staphylococcus aureus ATCC BAA 1556 assessed as reduction in colony formation at MIC measured at 8 to 12 hrs by Time kill assay; assay type: functional, organism-based; settings: time 8-12 hrs
Klebsiella pneumoniae [35] = assay: Antibacterial activity against Klebsiella pneumoniae ATCC BAA 1705 assessed as vancomycin MIC incubated for 24 hrs by microbroth dilution assay; assay type: functional
Staphylococcus aureus [36] = assay: Antibacterial activity against Methicillin resistant Staphylococcus aureus ATCC BAA -1556 assessed as reduction in microbial growth incubated for 24 hrs by microbroth dilution method; assay type: functional
Escherichia coli [37] = assay: Bactericidal activity against Escherichia coli ATCC BAA 2452 assessed as reduction in colony formation at MIC measured after 12 hrs by Time kill assay; assay type: functional, organism-based

In the case of `N=C(N)NCCC[C@@H]1NC(=O)[C@H](CCCNC(=N)N)NC(=O)[C@H](CCCNC(=N)N)NC(=O)[C@H](CCCNC(=N)N)NC(=O)[C@H](Cc2c[nH]c3ccccc23)NC(=O)[C@H](Cc2c[nH]c3ccccc23)NC(=O)[C@H](Cc2c[nH]c3ccccc23)NC(=O)[C@H](Cc2c[nH]c3ccccc23)NC(=O)[C@H](CCCCN)NC(=O)[C@H](CCCNC(=N)N)NC1=O` (cyclo(KWWWWRRRRR)), the MIC (Klebsiella pneumoniae [1]) is reported as 1 µg/mL, the MIC (Escherichia coli [2]) is reported as 16 µg/mL and the “fractional inhibitory concentration index (FICI)” value (Staphylococcus aureus [3]) is reported as 1. The Activity (HEK293) was “Non-Toxic”, the Activity (Cell membrane [4]) was 81.3% and the MIC (Pseudomonas aeruginosa [5]) was 8 µg/mL. For the same compound, the MIC (Klebsiella pneumoniae [6]) was 2 µg/mL, the “fractional inhibitory concentration index (FICI)” value (Klebsiella pneumoniae [7]) was 0.5625 and the MIC (Staphylococcus aureus [8]) was 0.0625 µg/mL. For the same compound, the MIC (Staphylococcus aureus [9]) was 0.5 µg/mL, the MIC (Klebsiella pneumoniae [10]) was 8 µg/mL and the “fractional inhibitory concentration index (FICI)” value (Klebsiella pneumoniae [11]) was 0.375. The Activity (Cell membrane [12]) was 48.2%, the “fractional inhibitory concentration index (FICI)” value (Staphylococcus aureus [13]) was 0.498 and the “fractional inhibitory concentration index (FICI)” value (Escherichia coli [14]) was 0.375. For the same compound, the HC50 at 2 h [15] was 320 µg/mL, the Activity (HepaRG) was “Non-Toxic” and the Activity (Klebsiella pneumoniae [16]) was “Active”. The MIC (Escherichia coli [17]) was 8 µg/mL, the MIC (Klebsiella pneumoniae [18]) was 16 µg/mL and the “fractional inhibitory concentration index (FICI)” value (Staphylococcus aureus [19]) was 0.5. For the same compound, the Activity (Escherichia coli [20]) was “Active”, the “fractional inhibitory concentration index (FICI)” value (Escherichia coli [21]) was 0.5 and the MIC (Klebsiella pneumoniae [22]) was 0.063 µg/mL. The Activity (Pseudomonas aeruginosa [23]) was “Active”, the “fractional inhibitory concentration index (FICI)” value (Staphylococcus aureus [24]) was 0.5 and the MIC (Klebsiella pneumoniae [25]) was 32 µg/mL. For the same compound, the “fractional inhibitory concentration index (FICI)” value (Pseudomonas aeruginosa [26]) was 0.156, the “fractional inhibitory concentration index (FICI)” value (Klebsiella pneumoniae [27]) was 0.375 and the Activity (Pseudomonas aeruginosa [28]) was “Active”. The MIC (Pseudomonas aeruginosa [29]) was 4 µg/mL, the MIC (Staphylococcus aureus [30]) was 0.0625 µg/mL and the “fractional inhibitory concentration index (FICI)” value (Klebsiella pneumoniae [31]) was 0.75. For the same compound, the MIC (Pseudomonas aeruginosa [32]) was 0.125 µg/mL, the “fractional inhibitory concentration index (FICI)” value (Klebsiella pneumoniae [33]) was 0.375 and the Activity (Staphylococcus aureus [34]) was “Active”. The MIC (Klebsiella pneumoniae [35]) was 16 µg/mL, the MIC (Staphylococcus aureus [36]) was 4 µg/mL and the Activity (Escherichia coli [37]) was “Active”.
